Results as given in a polymer gas permeability compilation.

Row | Compound | CH4 permeability [Barrer] | CO2 permeability [Barrer] | H2 permeability [Barrer] | N2 permeability [Barrer] | O2 permeability [Barrer]
1 | *C(=O)c1ccc(C2(c3ccc(C(=O)c4ccc(Oc5ccc(C(=O)c6ccc(C(=O)c7ccc(Oc8ccc(*)cc8)cc7)cc6)cc5)cc4)cc3)OC(=O)c3ccccc32)cc1 (repeat unit) | 0.069 | 2.14 | 7.5 | 0.0729 | 0.51
2 | *CC(*)OC1C2CC3CC(C2)CC1C3 (repeat unit) |  | 25.2 |  | 1.69 | 6.01
3 | *c1ccc(N2C(=O)c3ccc(C(c4ccc5c(c4)C(=O)N(*)C5=O)(C(F)(F)F)C(F)(F)F)cc3C2=O)cc1 (repeat unit) | 1.31 | 62 | 107 | 2.57 | 12.7
4 | *c1ccc2c3c(ccc2c1)OC1Oc2ccc4cc(N5C(=O)c6ccc(C(c7ccc8c(c7)C(=O)N(*)C8=O)(C(F)(F)F)C(F)(F)F)cc6C5=O)ccc4c2C31 (repeat unit) | 0.7 | 29.9 | 73 | 1.2 | 7.2
5 | *c1c(C)cc(C)c(-n2c(=O)c3cc4c(=O)n(*)c(=O)c4cc3c2=O)c1C (repeat unit) |  |  | 235 | 8.44 | 36.3
6 | *Oc1ccc(C(C)(C)c2ccc(Oc3ccc(C(=O)c4ccc(*)cc4)cc3)cc2)cc1 (repeat unit) | 0.18 | 3.5 | 11 | 0.16 | 1
7 | *c1ccc(Cc2ccc(N3C(=O)c4ccc(Oc5ccc(C(c6ccc(Oc7ccc8c(c7)C(=O)N(*)C8=O)cc6)(C(F)(F)F)C(F)(F)F)cc5)cc4C3=O)cc2)cc1 (repeat unit) |  |  | 8.31 | 0.076 | 0.501
8 | *CCCCO* (repeat unit) | 22.5 | 170 | 36 | 8.85 | 21.5
9 | *Oc1ccc(S(=O)(=O)c2ccc(-c3ccc(S(=O)(=O)c4ccc(Oc5ccc(C(C)(C)c6ccc(*)cc6)cc5)cc4)cc3)cc2)cc1 (repeat unit) | 0.5 | 10.8 | 20.1 | 0.469 | 2.39
10 | *Nc1ccc(C(=O)c2ccc(NC(=O)c3cccc(C(*)=O)c3)cc2)cc1 (repeat unit) |  | 0.32 |  |  | 0.069
11 | *Oc1ccc(S(=O)(=O)c2ccc(Oc3ccc(C(C)(C)c4ccc(*)cc4)cc3N)cc2)cc1 (repeat unit) | 0.12 | 2.95 |  | 0.12 | 0.745
12 | *c1ccc(N(c2ccc(N3C(=O)c4ccc(C(c5ccc6c(c5)C(=O)N(*)C6=O)(C(F)(F)F)C(F)(F)F)cc4C3=O)cc2)c2ccc(N(c3ccc(OC)cc3)c3ccc(OC)cc3)cc2)cc1 (repeat unit) | 0.4 | 13 |  | 0.59 | 2.94
13 | *Oc1ccc(C(c2ccc(Oc3ccc(C(=O)c4ccc(C(C)(C)c5ccc(C(=O)c6ccc(*)cc6)cc5)cc4)cc3)cc2)(C(F)(F)F)C(F)(F)F)cc1 (repeat unit) | 0.345 | 8 | 22.8 | 0.44 | 2.4
14 | *O[Si](C)(C)CC[Si](*)(C)C (repeat unit) | 597 | 1880 |  |  | 394
15 | *Oc1cc2c(cc1O*)C1(CC2(C)C)CC(C)(C)c2cc3c(cc21)Oc1c(c(C(F)(F)F)c(*)c(*)c1S(=O)(=O)c1ccccc1)O3 (repeat unit) |  | 2160 |  | 116 | 434
16 | *OC(=O)c1ccc(C(=O)Oc2ccc(C3(c4ccc(O*)cc4)OC(=O)c4ccccc43)cc2)cc1 (repeat unit) | 0.47 | 11.7 |  | 0.41 | 2.15

Row | Compound | CH4 permeability [Barrer] | CO2 permeability [Barrer] | H2 permeability [Barrer] | N2 permeability [Barrer] | O2 permeability [Barrer]
17 | *OC(=O)c1ccc(C(=O)Oc2c(C)cc(C(C)(C)c3cc(C)c(O*)c(C)c3)cc2C)cc1 (repeat unit) | 1.32 | 4.7 |  | 1.43 | 7.3
18 | *c1ccc(Cc2ccc(N3C(=O)c4ccc(C(=O)Oc5ccc(C(c6ccc(OC(=O)c7ccc8c(c7)C(=O)N(*)C8=O)cc6)(C(F)(F)F)C(F)(F)F)cc5)cc4C3=O)cc2)cc1 (repeat unit) |  |  | 11.8 | 0.164 | 0.917
19 | *C(=C(*)c1cccc([Si](C)(C)C)c1)c1ccccc1 (repeat unit) | 1500 | 4700 | 2100 | 610 | 1200
20 | *OC(=O)c1ccc(C(=O)Oc2ccc(C(C)(C)c3ccc(O*)c(C)c3)cc2C)cc1 (repeat unit) | 0.17 | 5.8 |  | 0.23 | 1.12
21 | *OC1OC(OC(C)=O)C(*)C(O)C1OC(C)=O (repeat unit) | 0.15 | 3.5 | 12 | 0.14 | 0.735
22 | *Oc1c(-c2ccccc2)cc(*)cc1-c1ccccc1 (repeat unit) | 2.7 | 39.9 | 28 | 1.5 | 7.7
23 | *c1ccc(Oc2ccc(C(c3ccc(Oc4ccc(N5C(=O)c6ccc(C(=O)c7ccc8c(c7)C(=O)N(*)C8=O)cc6C5=O)cc4C(F)(F)F)cc3)(C(F)(F)F)C(F)(F)F)cc2)c(C(F)(F)F)c1 (repeat unit) | 0.189 | 8.04 | 24.6 | 0.37 | 2.44
24 | */C=C/c1ccc(*)cc1[Si](C)(C)CCCC (repeat unit) |  | 14 |  | 1.1 | 3.5
25 | *CC(*)(C)C(=O)OCCOCC (repeat unit) | 1.23 | 8.56 |  | 0.385 | 1.45
26 | *c1c(C)cc(C)c(N2C(=O)c3ccc(C(=O)c4ccc5c(c4)C(=O)N(*)C5=O)cc3C2=O)c1C (repeat unit) |  |  | 46.4 | 1 | 5
27 | *c1ccc(C(c2ccc(-c3nnc(*)n3-c3ccc(O)cc3)cc2)(C(F)(F)F)C(F)(F)F)cc1 (repeat unit) | 6.69 | 268 |  | 10.2 | 
28 | *c1ccc(Oc2ccc(S(=O)(=O)c3ccc(Oc4ccc(N5C(=O)c6ccc(-c7ccc8c(c7)C(=O)N(*)C8=O)cc6C5=O)cc4)cc3)cc2)cc1 (repeat unit) | 0.0397 | 1.85 |  | 0.0544 | 0.368
29 | */C=C/C1CCC(*)C1 (repeat unit) | 2.5 | 15.4 | 21 | 1.5 | 2.8
30 | *Oc1c(C)cc(*)c(C(=O)c2ccc(C)cc2)c1C (repeat unit) | 1.49 | 21.4 |  | 2.42 | 7.36
31 | *C(=C(*)c1ccc2c(c1)C(C)(C)c1cc([Si](C)(C)C)ccc1-2)c1ccccc1 (repeat unit) | 10000 | 18000 | 8500 | 3400 | 5400
